One data set relates to GSK3β. Briefly: Phosphorylation of GSK3β (pSer9) in primary cortical neurons. The note with it: 2.5 mM metformin over increasing time intervals. The format is cell-based, mouse. Here is the method: (§1) Primary cortical neurons were isolated from brain of wt or transgenic (Mapt^tm1(EGFP)klt Tg(MAPT)8cPdav/J; Jackson Laboratory) embryos at day 14.5. Cortices were collected in DMEM (Lonza) and cells were dissociated by incubation with Trypsin/EDTA for 6.5 min at 37° C. Cells were then diluted in neurobasal medium (Gibco-BRL) containing B27 supplement (Gibco BRL). Cells were plated at a density of 4.0×10^5 onto 0.2 mg/ml poly-D-lysin (Sigma) and 2 μg/ml Laminin (Sigma) coated 12 well plates. Neurons were incubated at 37° C. with 8% CO2. One hour after seeding a complete change of medium was performed. Later on, each 96 hours half volumes of the medium were replaced by fresh medium. After 7 days in culture neurons were treated.
Cell pellets were homogenized in Magic-Mix (48% UREA, 15 mM Tris-HCL pH 7.5, 8.7% Glycerin, 1% SDS, 0.004% Bromphenolblue, 143 mM Mercaptoethanol), sonicated and boiled for 5 min at 95° C. Proteins were resolved on 8 or 10% SDS gels and blotted onto PVDF-membranes (Roche). […]

Another data set deals with ribosomal protein S6. Kind of data set: Phosphorylation of S6 in rat hepatoma cell line H4IIE. The note with it: 2.5 mM, 16 hours. The data set is classed as cell-based. As to the method:
(§2) Cell pellets were homogenized in Magic-Mix (48% UREA, 15 mM Tris-HCL pH 7.5, 8.7% Glycerin, 1% SDS, 0.004% Bromphenolblue, 143 mM Mercaptoethanol), sonicated and boiled for 5 min at 95° C. Proteins were resolved on 8 or 10% SDS gels and blotted onto PVDF-membranes (Roche). Antibodies used in this study were purchased from the following companies: Tau-5 (Biosource), anti-human PHF pSer202 (Thermo scientific), Tau pSer356 (Biosource), Tau pSer262 (Biosource), Tau pSer396 (Sigma), Actin (Sigma), ACC (cell signalling), ACC pSer79 (cell signalling), phospho-S6 ribosomal protein pSer241/244 (cell signalling), p70S6 Kinase (cell signalling), p70S6K pThr421/pSer424 (cell signalling), mTOR (cell signalling), AMPK (cell signallling, AMPK pThr172 (cell singnaling), HRP-anti-rabbit (Amersham), HRP-anti-mouse (Dianova). The resulting bands were quantified using Imagequant5.2. Statistical analyses were performed using SigmaStat software package (v 3.0, SPSS, USA). For timecourse or dose-response studies, data were analyses by one-way ANOVA with post hoc Dunnett's or Bonferonni test to accommodate for multiple comparisons. A Student's t-test was used for two-group comparisons, as appropriate.

Another data set concerns p70S6kinase. Kind of data set: Phosphorylation of p70S6kinase in primary cortical neurons. The data set is classed as cell-based, mouse. To be noted: 2.5 mM metformin over increasing time intervals. Here is the method: as §1
(§3) Cells were incubated with the respective substances as follows: Metformin (Sigma) at final concentrations up to 2.5 mM for 1 to >24 hours, okadaic acid (Sigma) at final concentrations from 1 nM to 10 nM for 4 h, Fostricien (Sigma) at final concentration of 1 μM for 4 h and AICAR (cell signalling) at final concentration of 5 mM for 0.5-16 h. For cell treatment without insulin, medium containing B27+insulin supplement was replaced with medium containing B27-supplement without insulin 24 h before treatment. 3 groups of 2 mice were treated with or without 5 mg/l metformin in the drinking water.
as §2

The test system of data set [1] is ribosomal protein S6 (S241/244). Briefly: Phosphorylation of ribosomal protein S6 (mTORC1 signalling) in primary neurons from wild-type mice. The format is cell-based, mouse. Here is the method:
as §1
as §3, with “water. […]” for “water.”

For another data set, the system named is AMPK. Kind of data set: Phosphorylation of AMPK (pThr 172) in primary cortical neurons. The data set is classed as cell-based, mouse. Here is the method:
as §1
(§4) Cells were incubated with the respective substances as follows: Metformin (Sigma) at final concentrations up to 2.5 mM for 1 to >24 hours, okadaic acid (Sigma) at final concentrations from 1 nM to 10 nM for 4 h, Fostricien (Sigma) at final concentration of 1 μM for 4 h and AICAR (cell signalling) at final concentration of 5 mM for 0.5-16 h. For cell treatment without insulin, medium containing B27+insulin supplement was replaced with medium containing B27-supplement without insulin 24 h before treatment. […]
as §2, with “Proteins were resolved on 8 or 10% SDS gels and blotted onto PVDF-membranes (Roche).” left out, “Statistical analyses were performed using SigmaStat software package (v 3.0, SPSS, USA). For timecourse or dose-response studies, data were analyses by one-way ANOVA with post hoc Dunnett's or Bonferonni test to accommodate for multiple comparisons. A Student's t-test was used for two-group comparisons, as appropriate.” left out

The conditions of data set [2]: dosages applied to patients with Type II Diabetes; cited from earlier work.
The subject of the next data set is S6. Briefly: Brain S6 phosphorylation in mice fed metformin in the drinking water. The data set is classed as in vivo, mouse. To be noted: 5 mg/ml in the drinking water for 16-24 days. As to the method:
as §4
Mice were decapitated and brains were rapidly dissected in nitrogen. […]
as §2, with “Proteins were resolved on 8 or 10% SDS gels and blotted onto PVDF-membranes (Roche).” left out, “Statistical analyses were performed using SigmaStat software package (v 3.0, SPSS, USA). For timecourse or dose-response studies, data were analyses by one-way ANOVA with post hoc Dunnett's or Bonferonni test to accommodate for multiple comparisons. A Student's t-test was used for two-group comparisons, as appropriate.” left out

The target of a further data set is T1, MID1-α4-PP2Ac complex (Homo sapiens, UniProt P67775+P78318).
T1 construct: made in house; host or cells: E. coli BL21
T1 sequence (P67775 whole entry): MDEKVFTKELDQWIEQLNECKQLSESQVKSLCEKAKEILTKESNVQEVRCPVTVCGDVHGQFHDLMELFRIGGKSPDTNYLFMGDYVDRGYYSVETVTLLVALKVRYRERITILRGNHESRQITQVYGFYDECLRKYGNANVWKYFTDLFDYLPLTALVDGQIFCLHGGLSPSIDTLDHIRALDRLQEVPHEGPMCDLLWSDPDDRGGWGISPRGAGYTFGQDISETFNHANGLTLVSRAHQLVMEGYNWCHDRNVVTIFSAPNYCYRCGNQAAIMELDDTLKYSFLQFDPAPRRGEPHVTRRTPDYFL
T1 sequence (P78318 whole entry): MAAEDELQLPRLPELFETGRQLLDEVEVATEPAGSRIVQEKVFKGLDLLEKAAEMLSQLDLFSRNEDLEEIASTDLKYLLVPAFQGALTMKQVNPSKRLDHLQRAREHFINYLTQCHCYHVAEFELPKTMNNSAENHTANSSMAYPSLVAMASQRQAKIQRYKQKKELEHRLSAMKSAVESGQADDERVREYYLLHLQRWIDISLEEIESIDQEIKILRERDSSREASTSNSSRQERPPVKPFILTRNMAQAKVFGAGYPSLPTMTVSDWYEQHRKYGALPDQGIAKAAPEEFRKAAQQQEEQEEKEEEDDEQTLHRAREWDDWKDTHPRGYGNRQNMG
Briefly: Affinity chromatography of the PP2Ac-MID1 B-box-α4 complex. The data set is classed as binding. The note with it: metformin at different concentrations in the washing buffer. As to the method:
The MID1-B-box-domains, α4, or HIS-tagged PP2Ac were expressed in E. coli BL21. Cells were lysed by French press in buffer A (50 mM Na-phosphate, 300 mM NaCl, 20 mM imidazole, pH 8.0). Lysates were mixed and PP2A-protein complexes were immobilized on Ni-NTA columns (Qiagen) and washed extensively with buffer A containing 10% glycerol and 0.25% Tween20. After washing columns were eluted with buffer A containing different concentrations of metformin. Elutions were analyzed on SDS-Gels followed by Coomassie staining.

The target of data set [3] is T2, purified PP2Ac (catalytic subunit of PP2A) (Homo sapiens, UniProt P67775).
T2 construct: purchased upstate
T2 sequence (P67775 whole entry): as the sequence (P67775 whole entry) above
Kind of data set: PP2A activity assay (malachite green), purified PP2Ac. The format is biochemical. To be noted: 10 mM metformin, 1 hour. Here is the method: (§5) Either purified PP2Ac (upstate), cell lysates or PP2A-holoenzymes, which were purified by immunoprecipitation using a PP2A-A-subunit antibody (Millipore), were incubated with or without 10 mM metformin or 10 nM okadaic acid for 1 hour. Afterwards PP2A phosphatase activity was determined using a malachite green assay kit (upstate) following the manufacturer's instructions.

A further data set concerns PP2A-holoenzymes. Kind of data set: PP2A activity assay (malachite green), PP2A-holoenzymes immunopurified from HeLa cell lysates. The data set is classed as biochemical. To be noted: 10 mM metformin, 1 hour. Here is the method: as §5
For another data set, the system named is human tau. Briefly: Tau phosphorylation by Western blot in primary cortical neurons of mice expressing human tau. The data set is classed as cell-based. To be noted: increasing concentration of metformin over 4 hours. Here is the method:
as §1
as §3, with “water. […]” for “water.”

A further data set deals with T3, α4-PP2Ac association (Homo sapiens, UniProt P67775+P78318).
T3 construct: expressed in transfected cells; host or cells: HeLa
T3 sequence (P78318 whole entry): as the sequence (P78318 whole entry) above
T3 sequence (P67775 whole entry): as the sequence (P67775 whole entry) above
Briefly: Co-immunoprecipitation of PP2Ac and V5-tagged α4 in HeLa cell lysates. The data set is classed as binding. The note with it: 2.5 mM metformin added to lysates of α4-V5 expressing HeLa cells.

A further data set deals with T4, PP2A (Mus musculus, UniProt P63330).
T4 construct: treated primary neurons with metformin and analyzed PP2A activity in the cell lysates; endogenous in cells; host or cells: primary neurons
T4 sequence (P63330 whole entry): as the sequence (P67775 whole entry) above, with V5L counted along it
Briefly: PP2A activity in lysates of metformin-treated primary neurons. The data set is classed as cell-based. Details: dose or concentration left out as unconfirmed. Here is the method:
Afterwards PP2A phosphatase activity was determined using a malachite green assay kit (upstate) following the manufacturer's instructions.

The source of these data is US20120184624A1, “Treatment of Alzheimer's Disease” (priority 2010, published 2012).

For the molecule `CN(C)C(=N)N=C(N)N` [metformin, Metformin], the “phosphorylation of GSK3β at position Ser 9 (de-phosphorylation activates the enzyme)” value is reported as “reduces the phosphorylation” with GSK3β and “increases the activity of GSK3β” in the data set on GSK3β (listed as Metformin). Besides, the “ability to dephosphorylate S6” value in the data set on ribosomal protein S6 was “clearly apparent”. The “phosphorylation status of p70S6kinase” value was “Results were confirmed” with p70S6kinase and “decrease of pS6kinase phosphorylation” with p70S6kinase (listed as Metformin). Also, the “S6 phosphorylation (S241/244)” value in [1] (2.5 mM, within 4 h of exposure) is “significant dephosphorylation”; in [1] (increasing concentrations of metformin, 16 hours) it was “dose dependent decrease”. For the same molecule, the “AMPK phosphorylation (pThr 172)” value is on record as “does induce AMPK phosphorylation significantly” in the data set on AMPK (2.5 mM for 10 hours); “no significant effect” in the data set with AMPK (2.5 mM, shorter intervals of incubation than 10 hours); “no significant effect” with AMPK (smaller amounts than 2.5 mM for 24 hours). Besides, the peak plasma concentrations result in data set [2] was “around 12 μM”. Further, in the data set on S6, the “brain S6 phosphorylation” value is recorded as “significantly de-phosphorylated”. Also, at MID1-α4-PP2Ac complex, the “elution of MID1 B-boxes and α4 from immobilized HIS-tagged PP2Ac” value was “could be eluted from the column by adding metformin”. Moreover, the “PP2A activity of purified PP2Ac” value in data set [3] is reported as “no influence”. The “activity of the immunopurified PP2A protein complex” value with PP2A-holoenzymes is listed as “significantly increased”. Moreover, in the data set with human tau, the “phosphorylation of human tau at Ser 202” value was “reacted in the same way”. Besides, the “amount of PP2Ac associated with α4” value on α4-PP2Ac association was “dissociation of α4 from PP2Ac”. For the same molecule, the “phosphatase (PP2A) activity in cell lysates” value on PP2A is given as “significantly increased phosphatase activity”.
